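Following 48 hours of exposure in 96-well plates, responses at five concentrations were used to interpolate endpoints linearly. GI50 = concentration required for 50% inhibition of growth. TGI is the concentration that stops growth completely.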
How the values were obtained:
Assay in all cases: DTP human tumour cell line panel, 48 h
[1] = system: ACHN renal
[2] = system: 786-0 renal
[3] = system: SNB-19 CNS
[4] = system: HCC-2998 colon
[5] = system: SF-268 CNS
[6] = system: HT29 colon
[7] = system: SR leukemia
[8] = system: UACC-62 melanoma
[9] = system: MDA-MB-435
[10] = system: NCI-H23 lung
[11] = system: CAKI-1 renal
[12] = system: OVCAR-3 ovarian
[13] = system: RXF 393 renal
[14] = system: MCF7 breast
[15] = system: NCI-H226 lung
[16] = system: HOP-62 NSCLC
[17] = system: SN12C renal
[18] = system: OVCAR-4 ovarian
[19] = system: HL-60(TB) leukemia
[20] = system: COLO 205 colon
[21] = system: TK-10 renal
[22] = system: SF-295 CNS
[23] = system: RPMI-8226 leukemia
[24] = system: HCT-116 colon
[25] = system: NCI-H460 lung
[26] = system: UACC-257 melanoma
[27] = system: EKVX NSCLC
[28] = system: T-47D breast

SMILES: Cn1ccnc1C(=O)/C=C/c1ccc(C(=O)Nc2ccc(Cl)cc2)cc1
- GI50 [1]: 620 nM
- TGI [1]: 1240 nM
- GI50 [2]: 761 nM
- TGI [2]: 1820 nM
- GI50 [3]: 987 nM
- TGI [3]: > 33300 nM
- GI50 [4]: 655 nM
- TGI [4]: 1430 nM
- GI50 [5]: 1370 nM
- TGI [5]: > 33300 nM
- GI50 [6]: 946 nM
- TGI [6]: > 33300 nM
- GI50 [7]: 255 nM
- TGI [7]: 1560 nM
- GI50 [8]: 1550 nM
- TGI [8]: 7590 nM
- GI50 [9]: 1370 nM
- TGI [9]: > 33300 nM
- GI50 [10]: 1250 nM
- TGI [10]: 7620 nM
- GI50 [11]: 1170 nM
- TGI [11]: > 33300 nM
- GI50 [12]: 910 nM
- TGI [12]: 3160 nM
- GI50 [13]: 836 nM
- TGI [13]: 2660 nM
- GI50 [14]: 899 nM
- TGI [14]: 24100 nM
- GI50 [15]: 3110 nM
- TGI [15]: 18000 nM
- GI50 [16]: 1040 nM
- TGI [16]: > 33300 nM
- GI50 [17]: 1010 nM
- TGI [17]: 5070 nM
- GI50 [18]: 981 nM
- TGI [18]: > 33300 nM
- GI50 [19]: 669 nM
- TGI [19]: 1970 nM
- GI50 [20]: 1030 nM
- TGI [20]: > 33300 nM
- GI50 [21]: 973 nM
- TGI [21]: 17200 nM
- GI50 [22]: 1460 nM
- TGI [22]: 6110 nM
- GI50 [23]: 431 nM
- TGI [23]: 1350 nM
- GI50 [24]: 514 nM
- TGI [24]: 1080 nM
- GI50 [25]: 747 nM
- TGI [25]: 2000 nM
- GI50 [26]: 2480 nM
- TGI [26]: > 33300 nM
- GI50 [27]: 2340 nM
- TGI [27]: 22000 nM
- GI50 [28]: 846 nM

— PubChem BioAssay (NCI)
